The structures appear in SMILES notation. pIC50: −log10 of the molar value. Where only a bound is given, the exact number is not on record here.

This note sets out measurements from patent US8153631B2, “Triazole compounds and uses related thereto” (Amgen Inc., priority 2003, dated 2012).

This assay deals with T1, human HSD1 (recombinant HSD1) (Homo sapiens, UniProt P28845).
T1 construct: made in house
T1 sequence (P28845 whole entry): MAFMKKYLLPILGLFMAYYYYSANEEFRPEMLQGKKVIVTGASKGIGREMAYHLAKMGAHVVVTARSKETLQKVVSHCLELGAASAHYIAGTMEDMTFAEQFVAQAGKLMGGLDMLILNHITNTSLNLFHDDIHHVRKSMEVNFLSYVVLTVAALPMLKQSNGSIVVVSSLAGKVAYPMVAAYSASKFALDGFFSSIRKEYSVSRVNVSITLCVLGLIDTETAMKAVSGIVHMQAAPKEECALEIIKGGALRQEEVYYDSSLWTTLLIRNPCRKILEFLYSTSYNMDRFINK
Briefly: In vitro HSD1 activity inhibitory action, SPA of cortisone to cortisol conversion. The assay is classed as biochemical. As to conditions: recombinant human HSD1 0.1 μg/ml, 500 μM NADPH, 16 nM 3H cortisone, room temperature 90 min, read-out: hHSD1 IC50. On the procedure:
In Vitro HSD1 (Hydroxysteroid Dehydrogenase 1) Activity Inhibitory Action
The HSD1 inhibitory activity was examined by quantitative determination by an SPA (scintillation proximity assay) system of the suppressive action on the conversion from cortisone to cortisol using human HSD1 (hereinafter recombinant HSD1) expressed using a baculo-virus system as an enzyme source. For the reaction, a reagent was added to a 96 well plate (96 well Opti-plates™-96 (Packard)) to the following final concentration and a volume of 100 μl was reacted at room temperature for 90 min. The reaction solution used was 0.1 μg/ml recombinant HSD1, 500 μM NADPH, 16 nM ^3H cortisone (Amersham Biosciences, 1.78 Tbq/mol) dissolved in 0.1% BSA (Sigma)-containing PBS and the test drug was 2 μl of a compound solution (dissolved in DMSO). After 90 min, the reaction was stopped by adding PBS (40 μl, containing 0.1% BSA (Sigma)) containing 0.08 μg of anti-cortisol mouse monoclonal antibody (East Coast Biologics), 365 μg SPA PVT mouse antibody-binding beads (Amersham Biosciences) and 175 μM carbenoxolone (Sigma) to the reaction solution. After the completion of the reaction, the plate was incubated overnight at room temperature and the radioactivity was measured by Topcount (Packard). For control, the value (0% inhibition) of the well containing 2 μl of DMSO instead of the test drug was used, and for positive control, the value (100% inhibition) of the well containing carbenoxolone instead of the test drug at the final concentration of 50 μM was used. The inhibition (%) of the test drug was calculated by ((value of control−value of test drug)/(value of control−value of positive control))×100 (%). The IC50 value was analyzed using a computer-based curve fitting soft.
A word on the pIC50: it is the negative decadic logarithm of the IC50, by convention in mol/L. For `COC(=O)C1(c2ccccc2)CCN(c2nnc(C3(c4ccccc4)CC3)n2C)CC1` [Ex. 2-2], the pIC50 is 6.00 to 8.00.

For `COC(=O)C1CCN(c2nnc(C3(c4ccccc4)CC3)n2C)CC1` [Ex. 2-4], the negative logarithm of the IC50 (pIC50) is 6.00 to 8.00.

On to `Cn1c(N2CCC(C(=O)O)CC2)nnc1C1(c2ccccc2)CC1` [Ex. 2-5], for which the pIC50 is 6.00 to 8.00.

In the case of `Cn1c(N2CCC(CO)CC2)nnc1C1(c2ccccc2)CC1` [Ex. 2-6], the pIC50 was over 8.00.

As to `Cn1c(N2CCC(NC(=O)OC(C)(C)C)CC2)nnc1C1(c2ccccc2)CC1` [Ex. 2-7], the pIC50 is 6.00 to 8.00.

On to `Cn1c(N2CCC(N)CC2)nnc1C1(c2ccccc2)CC1` [Ex. 2-8], for which the pIC50 is 6.00 to 8.00.

In the case of `CC(=O)NC1CCN(c2nnc(C3(c4ccccc4)CC3)n2C)CC1` [Ex. 2-9], the pIC50 was 6.00 to 8.00.

Consider `Cn1c(N2CCC(NC(=O)c3ccc(Cl)cc3Cl)CC2)nnc1C1(c2ccccc2)CC1` [Ex. 2-10], for which the pIC50 was 6.00 to 8.00.

Take `CN(C(=O)OC(C)(C)C)C1CCN(c2nnc(C3(c4ccccc4)CC3)n2C)CC1` [Ex. 2-11]: the pIC50 is 6.00 to 8.00.

As for `CNC1CCN(c2nnc(C3(c4ccccc4)CC3)n2C)CC1` [Ex. 2-12], the pIC50 is 6.00 to 8.00.

For `CC(=O)N(C)C1CCN(c2nnc(C3(c4ccccc4)CC3)n2C)CC1` [Ex. 2-13], the pIC50 was 6.00 to 8.00.

In the case of `Cn1c(N2CCCCC2)nnc1C1(c2ccccc2)CC1` [Ex. 2-14], the pIC50 was over 8.00.

As for `Cn1c(N2CCC(C(F)(F)F)CC2)nnc1C1(c2ccccc2)CC1` [Ex. 2-15], the pIC50 was over 8.00.

As to `Cn1c(N2CCC(C(N)=O)CC2)nnc1C1(c2ccccc2)CC1` [Ex. 2-16], the pIC50 is over 8.00.

For `Cn1c(N2CCC(CO)(c3ccccc3)CC2)nnc1C1(c2ccccc2)CC1` [Ex. 2-17], the pIC50 was 6.00 to 8.00.

`CNC(=O)C1CCN(c2nnc(C3(c4ccccc4)CC3)n2C)CC1` [Ex. 2-18]: the pIC50 is 6.00 to 8.00.

With `CN(C)C(=O)C1CCN(c2nnc(C3(c4ccccc4)CC3)n2C)CC1` [Ex. 2-19], the pIC50 was 6.00 to 8.00.

Turning to `Cn1c(N2CCOCC2)nnc1C1(c2ccccc2)CC1` [Ex. 2-20], the pIC50 is over 8.00.

Regarding `Cn1c(N2CCSCC2)nnc1C1(c2ccccc2)CC1` [Ex. 2-21], the pIC50 is over 8.00.

As to `Cn1c(N2CCS(=O)(=O)CC2)nnc1C1(c2ccccc2)CC1` [Ex. 2-22], the pIC50 was 6.00 to 8.00.

Turning to `Cn1c(N2CC[S+]([O-])CC2)nnc1C1(c2ccccc2)CC1` [Ex. 2-23], the pIC50 is 6.00 to 8.00.

As for `Cn1c(N2CCc3ccccc3C2)nnc1C1(c2ccccc2)CC1` [Ex. 2-24], the pIC50 was over 8.00.

`Cn1c(N2CCCc3ccccc32)nnc1C1(c2ccccc2)CC1` [Ex. 2-25]: the pIC50 was over 8.00.

For `Cn1c(N2CCNCC2)nnc1C1(c2ccccc2)CC1` [Ex. 2-26], the pIC50 is 6.00 to 8.00.

Take `CC(=O)N1CCN(c2nnc(C3(c4ccccc4)CC3)n2C)CC1` [Ex. 2-27]: the pIC50 is 6.00 to 8.00.

Take `Cn1c(N2CCC(Oc3ncc(Cl)cc3Cl)CC2)nnc1C1(c2ccc(Cl)cc2)CC1` [Ex. 2-29]: the pIC50 is 6.00 to 8.00.

For the molecule `Cn1c(N2CCC(Oc3ccccc3Cl)CC2)nnc1C1(c2ccccc2)CC1` [Ex. 2-30], the pIC50 is over 8.00.

For `Cn1c(N2CCC(Oc3ncc(Cl)cc3Cl)CC2)nnc1C1(c2ccc(F)cc2)CC1` [Ex. 2-31], the pIC50 is over 8.00.

`Cn1c(N2CCC(O)CC2)nnc1C1(c2ccccc2)CC1` [Ex. 2-32]: the pIC50 is over 8.00.

As to `Cn1c(N2CCC(Nc3ncc(Cl)cc3Cl)CC2)nnc1C1(c2ccccc2)CC1` [Ex. 2-33], the pIC50 is 6.00 to 8.00.

On to `Cn1c(N2CCC(Cc3ccccc3)CC2)nnc1C1(c2ccccc2)CC1` [Ex. 2-34], for which the pIC50 was 6.00 to 8.00.

As to `Cn1c(N2CCC(Oc3ccc(Cl)cc3)CC2)nnc1C1(c2ccccc2)CC1` [Ex. 2-35], the pIC50 is over 8.00.

With `Cn1c(N2CCC(Oc3ccc(F)cc3Cl)CC2)nnc1C1(c2ccccc2)CC1` [Ex. 2-36], the pIC50 is over 8.00.

In the case of `Cn1c(N2CCC(Oc3ncc(C(F)(F)F)cc3Cl)CC2)nnc1C1(c2ccccc2)CC1` [Ex. 2-37], the pIC50 is 6.00 to 8.00.

Regarding `Cn1c(N2CCC(Oc3ncccc3Cl)CC2)nnc1C1(c2ccccc2)CC1` [Ex. 2-38], the pIC50 is over 8.00.

In the case of `Cn1c(N2CCC(Oc3ccc(Cl)cn3)CC2)nnc1C1(c2ccccc2)CC1` [Ex. 2-39], the pIC50 was over 8.00.

As for `Cn1c(N2CCC(O)(c3ccccc3)CC2)nnc1C1(c2ccccc2)CC1` [Ex. 2-40], the pIC50 is 6.00 to 8.00.

Consider `CN(c1ncc(Cl)cc1Cl)C1CCN(c2nnc(C3(c4ccccc4)CC3)n2C)CC1` [Ex. 2-41], for which the pIC50 is 6.00 to 8.00.

For `COC1(c2ccccc2)CCN(c2nnc(C3(c4ccccc4)CC3)n2C)CC1` [Ex. 2-42], the pIC50 was 6.00 to 8.00.

`COC1CCN(c2nnc(C3(c4ccccc4)CC3)n2C)CC1` [Ex. 2-43]: the pIC50 is 6.00 to 8.00.

Regarding `Cn1c(N2CCC(Oc3ccc(C(=O)O)cc3)CC2)nnc1C1(c2ccccc2)CC1` [Ex. 2-44], the pIC50 is 6.00 to 8.00.

`Cn1c(N2CCC(Oc3cccc(C(=O)O)c3)CC2)nnc1C1(c2ccccc2)CC1` [Ex. 2-45]: the pIC50 was 6.00 to 8.00.

On to `Cn1c(N2CCC(Oc3ccccc3C(=O)O)CC2)nnc1C1(c2ccccc2)CC1` [Ex. 2-46], for which the pIC50 is 6.00 to 8.00.

Turning to `COC(=O)c1ccc(OC2CCN(c3nnc(C4(c5ccccc5)CC4)n3C)CC2)cc1` [Ex. 2-47], the pIC50 was 6.00 to 8.00.

In the case of `Cn1c(N2CCC(=O)CC2)nnc1C1(c2ccccc2)CC1` [Ex. 2-48], the pIC50 is over 8.00.

Take `COC(=O)c1cccc(OC2CCN(c3nnc(C4(c5ccccc5)CC4)n3C)CC2)c1` [Ex. 2-49]: the pIC50 is over 8.00.

On to `COC(=O)c1ccccc1OC1CCN(c2nnc(C3(c4ccccc4)CC3)n2C)CC1` [Ex. 2-50], for which the pIC50 was 6.00 to 8.00.

Take `Cn1c(N2CCC(Oc3ccc(F)cc3)CC2)nnc1C1(c2ccccc2)CC1` [Ex. 2-51]: the pIC50 is over 8.00.

Consider `Cn1c(N2CCC(Oc3ccc(C#N)cc3)CC2)nnc1C1(c2ccccc2)CC1` [Ex. 2-52], for which the pIC50 was over 8.00.

As to `CC1CCN(c2nnc(C3(c4ccccc4)CC3)n2C)CC1` [Ex. 2-53], the pIC50 is over 8.00.

On to `Cn1c(N2CCC(Oc3cccc(CO)c3)CC2)nnc1C1(c2ccccc2)CC1` [Ex. 2-54], for which the pIC50 is 6.00 to 8.00.

Consider `Cn1c(N2CCC(Oc3cccc(C(N)=O)c3)CC2)nnc1C1(c2ccccc2)CC1` [Ex. 2-55], for which the pIC50 is 6.00 to 8.00.

For `CNC(=O)c1cccc(OC2CCN(c3nnc(C4(c5ccccc5)CC4)n3C)CC2)c1` [Ex. 2-56], the pIC50 was 6.00 to 8.00.

As to `CN(C)C(=O)c1cccc(OC2CCN(c3nnc(C4(c5ccccc5)CC4)n3C)CC2)c1` [Ex. 2-57], the pIC50 was 6.00 to 8.00.

On to `Cn1c(N2CCC(C)(C)CC2)nnc1C1(c2ccccc2)CC1` [Ex. 2-58], for which the pIC50 was over 8.00.

Regarding `Cn1c(N2CCC(C)(O)CC2)nnc1C1(c2ccccc2)CC1` [Ex. 2-59], the pIC50 is over 8.00.

For `Cn1c(N2CCC(C)(C)CC2)nnc1C1(c2ccc(F)cc2)CC1` [Ex. 2-60], the pIC50 was over 8.00.

Turning to `Cn1c(N2CCC(CCO)CC2)nnc1C1(c2ccccc2)CC1` [Ex. 2-61], the pIC50 was over 8.00.

With `COC(=O)c1cc(OC2CCN(c3nnc(C4(c5ccccc5)CC4)n3C)CC2)ccc1Cl` [Ex. 2-62], the pIC50 was 6.00 to 8.00.

In the case of `Cn1c(N2CCC(Oc3ccc(Cl)c(CO)c3)CC2)nnc1C1(c2ccccc2)CC1` [Ex. 2-63], the pIC50 is 6.00 to 8.00.

On to `Cn1c(N2CCC(Oc3ccc(Cl)c(C(=O)O)c3)CC2)nnc1C1(c2ccccc2)CC1` [Ex. 2-64], for which the pIC50 is 6.00 to 8.00.

As for `CC(C)C1CCN(c2nnc(C3(c4ccccc4)CC3)n2C)CC1` [Ex. 2-65], the pIC50 is over 8.00.

With `Cn1c(N2CCC(Oc3ccc(Cl)c(C(N)=O)c3)CC2)nnc1C1(c2ccccc2)CC1` [Ex. 2-66], the pIC50 is 6.00 to 8.00.

As for `COC(=O)C1(C)CCN(c2nnc(C3(c4ccccc4)CC3)n2C)CC1` [Ex. 2-67], the pIC50 is over 8.00.

On to `Cn1c(N2CCC(C)(CO)CC2)nnc1C1(c2ccccc2)CC1` [Ex. 2-68], for which the pIC50 was over 8.00.

Regarding `Cn1c(N2CCC(C)(C(=O)O)CC2)nnc1C1(c2ccccc2)CC1` [Ex. 2-69], the pIC50 is 6.00 to 8.00.

For the molecule `Cn1c(N2CCC(C)(C(N)=O)CC2)nnc1C1(c2ccccc2)CC1` [Ex. 2-70], the pIC50 is over 8.00.

With `CCCn1c(N2CCC(Oc3ncc(Cl)cc3Cl)CC2)nnc1C1(c2ccccc2)CC1` [Ex. 2-71], the pIC50 is 6.00 to 8.00.

`COCCn1c(N2CCC(Oc3ncc(Cl)cc3Cl)CC2)nnc1C1(c2ccccc2)CC1` [Ex. 2-72]: the pIC50 was 6.00 to 8.00.

Regarding `Cn1c(N2CCC(Oc3ccc(Cl)cc3Cl)CC2)nnc1C1(c2ccccc2)CC1` [Ex. 2-73], the pIC50 is over 8.00.

With `C=CCn1c(N2CCC(Oc3ncc(Cl)cc3Cl)CC2)nnc1C1(c2ccccc2)CC1` [Ex. 2-75], the pIC50 was over 8.00.

On to `Clc1cnc(OC2CCN(c3nnc(C4(c5ccccc5)CC4)n3CC3CC3)CC2)c(Cl)c1` [Ex. 2-76], for which the pIC50 was over 8.00.

Consider `CC(C)Cn1c(N2CCC(Oc3ncc(Cl)cc3Cl)CC2)nnc1C1(c2ccccc2)CC1` [Ex. 2-77], for which the pIC50 is 6.00 to 8.00.
